Measurements taken from ChEMBL document CHEMBL5614371, “Quinazolines annelated at the N(3)-C(4) bond: Synthesis and biological activity” (Eur J Med Chem, 2024).
≈ marks a conversion by molar mass, not a printed value.

What was measured:
[1] = tested on: A549; assay: cells; settings: Homo sapiens, A549, 48 h
[2] = tested on: Mycobacterium tuberculosis; assay: microbe, parasite or virus in culture; settings: H37Rv
[3] = tested on: Mycobacterium tuberculosis; assay: microbe, parasite or virus in culture; settings: H37Rv ATCC 27294, 168 h
[4] = tested on: Staphylococcus aureus; assay: microbe, parasite or virus in culture; settings: ATCC 25923
[5] = tested on: Streptococcus pyogenes; assay: microbe, parasite or virus in culture; settings: ATCC 19615
[6] = tested on: HepG2; assay: cells; settings: Homo sapiens, HepG2, 48 h
[7] = tested on: HCT-116; assay: cells; settings: Homo sapiens, HCT-116, 48 h
[8] = tested on: MCF7; assay: cells; settings: Homo sapiens, MCF7, 48 h
[9] = tested on: HCT-116; assay: cells; settings: Homo sapiens, HCT-116, 24 h
[10] = tested on: HepG2; assay: cells; settings: Homo sapiens, HepG2, 24 h
[11] = tested on: A549; assay: cells; settings: Homo sapiens, A549, 48 h; remark: listed apart in the source
[12] = tested on: MCF7; assay: cells; settings: Homo sapiens, MCF7, 48 h; remark: listed apart in the source
[13] = tested on: MCF7; assay: cells; settings: Homo sapiens, MCF7, 48 h; remark: listed apart in the source
[14] = tested on: NCI-H1299; assay: cells; settings: Homo sapiens, NCI-H1299, 48 h
[15] = tested on: MDA-MB-231; assay: cells; settings: Homo sapiens, MDA-MB-231, 48 h
[16] = tested on: MDA-MB-231; assay: cells; settings: Homo sapiens, MDA-MB-231, 48 h; remark: listed apart in the source
[17] = cells; settings: Homo sapiens, Breast carcinoma cell
[18] = tested on: A549; assay: cells; settings: Homo sapiens, A549, 48 h; remark: listed apart in the source
[19] = tested on: NCI-H1299; assay: cells; settings: Homo sapiens
[20] = tested on: NCI-H1299; assay: cells; settings: Homo sapiens, NCI-H1299, 48 h; remark: listed apart in the source
[21] = tested on: HCT-116; assay: cells; settings: Homo sapiens, HCT-116, 48 h; remark: listed apart in the source
[22] = tested on: HepG2; assay: cells; settings: Homo sapiens, HepG2, 48 h; remark: listed apart in the source
[23] = tested on: Streptococcus pyogenes; assay: microbe, parasite or virus in culture
[24] = tested on: Escherichia coli; assay: microbe, parasite or virus in culture
[25] = tested on: Bacillus subtilis; assay: microbe, parasite or virus in culture
[26] = tested on: Trichoderma viride; assay: microbe, parasite or virus in culture
[27] = tested on: Aspergillus niger; assay: microbe, parasite or virus in culture
[28] = tested on: Candida albicans; assay: microbe, parasite or virus in culture
[29] = tested on: Staphylococcus aureus; assay: microbe, parasite or virus in culture
[30] = tested on: Klebsiella pneumoniae; assay: microbe, parasite or virus in culture
[31] = tested on: HCT-116; assay: cells; settings: Homo sapiens
[32] = tested on: DNA
[33] = tested on: MCF7; assay: cells; settings: Homo sapiens
[34] = tested on: MCF7; assay: cells; settings: Homo sapiens; remark: listed apart in the source
[35] = tested on: HCT-116; assay: cells; settings: Homo sapiens, HCT-116, 72 h
[36] = tested on: U-87 MG; assay: cells; settings: Homo sapiens, 72 h
[37] = tested on: A549; assay: cells; settings: Homo sapiens, A549, 72 h
[38] = tested on: HCT-116; assay: cells; settings: Homo sapiens; remark: listed apart in the source
[39] = tested on: HepG2; assay: cells; settings: Homo sapiens
[40] = tested on: HCT-116; assay: cells; settings: Homo sapiens; remark: listed apart in the source
[41] = tested on: HepG2; assay: cells; settings: Homo sapiens; remark: listed apart in the source
[42] = tested on: MCF7; assay: cells; settings: Homo sapiens, MCF7, 24 h
[43] = tested on: HepG2; assay: cells; settings: Homo sapiens, HepG2, 48 h; remark: listed apart in the source
[44] = tested on: MCF7; assay: cells; settings: Homo sapiens, MCF7, 48 h; remark: listed apart in the source
[45] = tested on: HepG2; assay: cells; settings: Homo sapiens, HepG2, 48 h; remark: listed apart in the source
[46] = tested on: MCF7; assay: cells; settings: Homo sapiens, MCF7, 48 h; remark: listed apart in the source

In the case of `Clc1ccc(-c2nc3ccccc3c3cc4cc(Cl)ccc4n23)cc1`, the IC50 [1] is reported as 30.7 µM.

`Clc1ccc(-c2nc3ccccc3c3cc4ccccc4n23)cc1` showed an IC50 [1] of 30.7 µM.

For `Clc1ccc2c(c1)cc1c3ccccc3nc(-c3ccccc3)n21`, the IC50 [1] was 30.7 µM.

For `Cc1ccc2nc(-c3ccccc3)n3c4ccccc4cc3c2c1`, the IC50 [1] was 30.7 µM.

`CCCc1nc2cc(C)ccc2c2nc3ccccc3n12` showed an IC50 [2] of 12.5 µg/mL (≈ 45.4 µM) and an IC50 [3] of 0.4 µg/mL (≈ 1.45 µM).

In the case of `Cc1ccc(S(=O)(=O)Oc2ccc(-c3nc4ccccc4c4nc(=S)[nH]n34)cc2)cc1`, the MIC [4] is reported as 3.12 µg/mL (≈ 6.97 µM) and the MIC [5] is reported as 6.25 µg/mL (≈ 13.9 µM).

With `c1ccc(-c2nc3ccccc3c3cccn23)cc1` the IC50 [1] was 30.7 µM.

Molecule `Cc1ccc(-c2nc3ccccc3c3cc4cc(Cl)ccc4n23)cc1` has an IC50 [1] of 30.7 µM.

Work on `O=[N+]([O-])c1ccc(-c2nc3ccccc3c3cc4ccccc4n23)cc1` yielded an IC50 [1] of 30.7 µM.

Molecule `COc1ccc(C2CC(c3ccc(Nc4nc5ccccc5c5nncn45)cc3)=NN2)cc1` (configuration not stated) has an IC50 [6] of 16.1 µM.

In the case of `Cc1nc2ccccc2c2cc3ccccc3n12`, the IC50 [1] is reported as 30.7 µM.

With `Clc1ccc2nc(-c3ccccc3)n3c4ccccc4cc3c2c1` the IC50 [1] was 30.7 µM.

Work on `COc1ccc(-c2cc(-c3ccc(Nc4nc5ccccc5c5nncn45)cc3)nc(=O)[nH]2)cc1` yielded an IC50 [7] of 11.8 µM.

`N#Cc1ccc2c3cc(Cl)c(Br)cc3ncn2c1=O` gave an IC50 [8] of 4.1 µg/mL (≈ 12.3 µM).

`CN(C)c1ccc(/C=N/NC(=O)c2ccc(Nc3nc4ccccc4c4nncn34)cc2)cc1` showed an IC50 [9] of 8.27 µM and an IC50 [10] of 7.91 µM.

Work on `c1ccc2cc(-c3cc4c5ccccc5ncn4n3)ccc2c1` yielded a GI50 [11] of 1.98 µM and a GI50 [12] of 2.03 µM.

`Clc1cc2c(cc1Br)ncn1cnnc21` showed an IC50 [13] of 3.39 µg/mL (≈ 12 µM).

`Oc1ccc(-c2nc3ccccc3c3cc(-c4ccccc4)nn23)cc1` gave a GI50 [14] of 2.97 µM and a GI50 [15] of 1.95 µM.

`COc1ccc(-c2nc3ccccc3c3cc4cc(Cl)ccc4n23)cc1` showed an IC50 [1] of 30.7 µM.

With `CC(C)(C)CC(C)(C)Nc1nc2ccccc2c2c(C(=O)c3ccc(F)cc3)c(N)nn12` the IC50 [16] was 1.93 µM, the IC50 [17] was < 2.5 µM and the IC50 [18] was 1.06 µM. For the same molecule, the IC50 [19] was < 2.5 µM and the IC50 [20] was 1.32 µM.

For `Cc1ccc(-c2nc3ccccc3c3cc4ccccc4n23)cc1`, the IC50 [1] was 30.7 µM.

`O=C(N/N=C/c1c(Cl)cccc1Cl)c1ccc(Nc2nc3ccccc3c3nncn23)cc1` gave an IC50 [9] of 7.41 µM and an IC50 [10] of 5.42 µM.

Work on `O=C(N/N=C/c1ccccc1Cl)c1ccc(Nc2nc3ccccc3c3nncn23)cc1` yielded an IC50 [9] of 5.21 µM and an IC50 [10] of 4.88 µM.

Molecule `Oc1ccc(/C=N/Nc2nc3ccccc3c3nncn23)cc1` has an IC50 [21] of 48.5 µM and an IC50 [22] of 4.43 µM.

With `O=C(N/N=C/c1ccc(Cl)cc1)c1ccc(Nc2nc3ccccc3c3nncn23)cc1` the IC50 [9] was 11 µM and the IC50 [10] was 8.64 µM.

`c1ccc(-c2nc3ncccc3c3cc4ccccc4n23)cc1` gave an IC50 [1] of 30.7 µM.

In the case of `c1ccc(C2CC(c3ccc(Nc4nc5ccccc5c5nncn45)cc3)=NN2)cc1` (configuration not stated), the IC50 [6] is reported as 16.1 µM.

`Nc1ccccc1-c1cc2ccccc2[nH]1` gave an MIC [23] of 2.5 µg/mL (≈ 12 µM), an MIC [24] of 2.5 µg/mL (≈ 12 µM) and an MIC [25] of 2.5 µg/mL (≈ 12 µM). For the same molecule, the MIC [26] was 2.5 µg/mL (≈ 12 µM), the MIC [27] was 2.5 µg/mL (≈ 12 µM) and the MIC [28] was 2.5 µg/mL (≈ 12 µM). It also gave an MIC [29] of 2.5 µg/mL (≈ 12 µM) and an MIC [30] of 2.5 µg/mL (≈ 12 µM).

For `CN(C)c1nc2ccccc2c2nncn12`, the IC50 [31] was 22.5 µM.

For `Cc1ccc2c(c1)cc1c3ccccc3nc(-c3ccccc3)n21`, the IC50 [1] was 30.7 µM.

For `S=C(NNc1nc2ccccc2c2nncn12)NC1CCCCC1`, the IC50 [32] was 48.1 µM.

Work on `O=C(/C=C\c1nc2ccccc2c2nc3ccccc3n12)c1ccc(Cl)c(Cl)c1` yielded an IC50 [33] of 61 µg/mL (≈ 146 µM) and an IC50 [34] of 61 µg/mL (≈ 146 µM).

With `O=c1nc2c3cc(Cl)c(Br)cc3ncn2c(O)c1-c1ccccc1` the IC50 [8] was 3.44 µg/mL (≈ 8.54 µM).

`COc1ccc(-c2nc3ccccc3c3cc4ccccc4n23)cc1` showed an IC50 [1] of 30.7 µM.

For `CC(C)(C)CC(C)(C)Nc1nc2ccccc2c2c(C#N)c(N)nn12`, the IC50 [16] was 1.96 µM, the IC50 [17] was < 2.5 µM and the IC50 [19] was < 2.5 µM. The IC50 [20] was 2.02 µM.

`COC(=O)c1nn2c(NC(C)(C)C)nc3cc(Cl)ccc3c2c1C(=O)OC` showed an IC50 [35] of 2.3 µM, an IC50 [36] of 2.6 µM and an IC50 [37] of 1.1 µM.

With `COc1cccc2c1C(=O)c1c(O)c3c(c(O)c1C2=O)C[C@@](O)(C(=O)CO)C[C@@H]3O[C@H]1C[C@H](N)[C@H](O)[C@H](C)O1` [DOXORUBICIN] the IC50 [32] was 31.3 µM, the IC50 [38] was 9.63 µM and the IC50 [6] was 7.94 µM.

In the case of `FC(F)(F)c1nc2ccccc2c2cc3cc(Cl)ccc3n12`, the IC50 [1] is reported as 30.7 µM.

For `O=c1nc(-c2ccc(Nc3nc4ccccc4c4nncn34)cc2)cc(-c2ccccc2)[nH]1`, the IC50 [7] was 11.8 µM.

In the case of `c1ccc(-c2nc3ccccc3c3cc4ccccc4n23)cc1`, the IC50 [1] is reported as 30.7 µM.

`O=C(N/N=C/c1ccccc1O)c1ccc(Nc2nc3ccccc3c3nncn23)cc1` gave an IC50 [9] of 7.1 µM and an IC50 [10] of 7.42 µM.

`O=C(NNc1nc2ccccc2c2nncn12)NC1CCCCC1` gave an IC50 [32] of 42.9 µM, an IC50 [39] of 7.98 µM and an IC50 [40] of 5.57 µM.

Molecule `Clc1cccc(Cl)c1/C=N/Nc1nc2ccccc2c2nncn12` has an IC50 [41] of 4.43 µM and an IC50 [38] of 5.22 µM.

In the case of `FC(F)(F)c1ccc2c(c1)cc1c3ccccc3nc(-c3ccccc3)n21`, the IC50 [1] is reported as 30.7 µM.

Molecule `Cc1ccc(-c2cc(-c3ccc(Nc4nc5ccccc5c5nncn45)cc3)nc(=O)[nH]2)cc1` has an IC50 [7] of 11.8 µM.

With `N#CC1=CC=C2c3cc(Cl)c(Br)cc3N=CN2C1N` (configuration not stated) the IC50 [8] was 3.45 µg/mL (≈ 10.3 µM).

In the case of `COc1ccc(C(=O)c2c(N)nn3c(NC(C)(C)CC(C)(C)C)nc4ccccc4c23)cc1`, the IC50 [16] is reported as 2.45 µM, the IC50 [18] is reported as 1.74 µM and the IC50 [20] is reported as 2.04 µM.

Molecule `Cc1c(O)n2cnc3cc(Br)c(Cl)cc3c2nc1=O` has an IC50 [8] of 3.5 µg/mL (≈ 10.3 µM).

Work on `CCCc1nc2ccccc2c2nc3ccccc3n12` yielded an IC50 [2] of 0.78 µg/mL (≈ 2.98 µM) and an IC50 [3] of 0.78 µg/mL (≈ 2.98 µM).

With `CCOC(=O)c1nn2c(NC(C)(C)CC(C)(C)C)nc3ccccc3c2c1C(=O)OCC` the GI50 [11] was 1.1 µM and the GI50 [14] was 1.29 µM.

Work on `CCOC(=O)c1ccc2c3cc(Cl)c(Br)cc3ncn2c1=O` yielded an IC50 [42] of 3.44 µg/mL (≈ 9.01 µM).

Molecule `c1ccc(Nc2ccccc2-c2nc3ccccc3c3nc(-c4ccccc4)nn23)cc1` has an IC90 [43] of 59.9 µg/mL (≈ 145 µM), an IC50 [44] of 87 µg/mL (≈ 210 µM) and an IC50 [45] of 33.3 µg/mL (≈ 80.5 µM). For the same molecule, the IC90 [46] was 137 µg/mL (≈ 332 µM).

For `Cc1ccc(C2CC(c3ccc(Nc4nc5ccccc5c5nncn45)cc3)=NN2)cc1` (configuration not stated), the IC50 [6] was 16.1 µM.
